Experiments:
[1] = target: T1, NLRP3 (Homo sapiens, UniProt Q96P20); assay: THP-1 cells pyroptosis assay; format: cell-based; set-up: Seed THP-1 cells (25,000 cells/well) containing 1.0 μg/ml LPS; host or cells: THP-1 cells, LPS-primed, nigericin-stimulated; details: 1.0 μg/ml LPS, nigericin 5 μM, resazurin readout
Method: The cells were routinely passaged and grown to confluency (˜10^6 cells/ml). On the day of the experiment, THP-1 cells were harvested and resuspended into RPMI medium (without FBS). […] To this diluted cell solution was added LPS (Sigma #L4524) to give a 1 μg/ml Final Assay Concentration (FAC). 40 μl of the final preparation was aliquoted into each well of a 96-well plate. The plate thus prepared was used for compound screening.
The following method step-by-step assay was followed for compound screening. • 1. […] Incubate for 3 hrs at 37° C., 5% CO2 • 4. Add 5 μl nigericin (Sigma #N7143) (FAC 5 μM) to all wells • 5. Incubate for 1 hr at 37° C., 5% CO2 • 6. At the end of the incubation period, spin plates at 300×g for 3 mins and remove supernatant • 7. Then add 50 μl of resazurin (Sigma #R7017) (FAC 100 μM resazurin in RPMI medium without FBS) and incubate plates for a further 1-2 hrs at 37° C. and 5% CO2 • 8. […] IC50 data is fitted to a non-linear regression equation (log inhibitor vs response-variable slope 4-parameters)

[2] = target: T1, NLRP3; assay: Human whole blood IL-1β release assay; format: cell-based; set-up: Human whole blood in Li-heparin tubes was obtained from healthy donors; from tissue; host or cells: human whole blood from healthy donors, LPS-primed, nigericin-stimulated; details: 1 μg/ml LPS, nigericin 10 μM, IL-1β by AlphaLisa
Method: For systemic delivery, the ability to inhibit NLRP3 when the compounds are present within the bloodstream is of great importance. For this reason, the NLRP3 inhibitory activity of a number of compounds in human whole blood was investigated in accordance with the following protocol.
Human whole blood in Li-heparin tubes was obtained from healthy donors from a volunteer donor panel. • 1. […] Incubate for 3 hrs at 37° C., 5% CO2 • 4. Add 10 μl nigericin (Sigma #N7143) (10 μM FAC) to all wells • 5. Incubate for 1 hr at 37° C., 5% CO2 • 6. At the end of the incubation period, spin plates at 300×g for 5 mins to pellet cells and remove 20 μl of supernatant and add to 96-well v-bottom plates for IL-1β analysis (note: these plates containing the supernatants can be stored at −80° C. to be analysed at a later date) • 7. IL-1β was measured according to the manufacturer protocol (Perkin Elmer-AlphaLisa IL-1 Kit AL220F-5000) • 8. IC50 data is fitted to a non-linear regression equation (log inhibitor vs response-variable slope 4-parameters)

T1 sequence (Q96P20 whole entry): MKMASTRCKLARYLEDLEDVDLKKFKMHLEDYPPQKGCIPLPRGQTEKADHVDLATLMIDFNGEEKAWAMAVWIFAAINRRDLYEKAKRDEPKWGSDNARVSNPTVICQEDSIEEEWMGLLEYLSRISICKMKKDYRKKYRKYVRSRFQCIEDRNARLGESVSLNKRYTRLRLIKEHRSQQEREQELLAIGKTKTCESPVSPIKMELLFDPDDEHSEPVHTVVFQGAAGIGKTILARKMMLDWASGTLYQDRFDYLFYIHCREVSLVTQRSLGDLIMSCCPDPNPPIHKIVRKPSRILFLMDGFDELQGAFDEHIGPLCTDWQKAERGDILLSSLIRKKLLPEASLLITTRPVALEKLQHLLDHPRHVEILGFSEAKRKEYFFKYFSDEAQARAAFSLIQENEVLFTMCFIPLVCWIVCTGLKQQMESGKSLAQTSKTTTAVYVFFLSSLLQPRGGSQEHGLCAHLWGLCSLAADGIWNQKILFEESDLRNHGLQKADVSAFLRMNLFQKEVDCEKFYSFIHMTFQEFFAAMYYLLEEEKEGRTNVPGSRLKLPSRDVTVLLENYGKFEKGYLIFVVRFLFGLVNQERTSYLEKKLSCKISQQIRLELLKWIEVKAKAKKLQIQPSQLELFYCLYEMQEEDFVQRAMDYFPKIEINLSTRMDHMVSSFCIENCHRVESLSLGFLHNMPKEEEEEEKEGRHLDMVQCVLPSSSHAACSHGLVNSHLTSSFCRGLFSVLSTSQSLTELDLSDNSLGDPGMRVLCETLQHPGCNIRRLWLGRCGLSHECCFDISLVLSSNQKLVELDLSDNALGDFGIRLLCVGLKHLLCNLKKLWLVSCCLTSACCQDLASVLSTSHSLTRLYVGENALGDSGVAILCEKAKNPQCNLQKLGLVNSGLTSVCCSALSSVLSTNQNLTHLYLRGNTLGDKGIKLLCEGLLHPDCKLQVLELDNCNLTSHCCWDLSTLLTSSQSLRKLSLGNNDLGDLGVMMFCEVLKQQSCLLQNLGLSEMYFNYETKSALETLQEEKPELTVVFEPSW

Compound | IC50 [1] | IC50 [2]
CCN1C[C@@H](C)C[C@@H](Nc2nnc(-c3ccc(C(F)(F)F)cc3O)n(C)c2=O)C1 [Example 14, 6-[[(3R,5S)-1-Ethyl-5-methyl-3-piperidyl]amino]-3-[2-hydroxy-4-(trifluoromethyl)phenyl]-4-methyl-1,2,4-triazin-5-one;2,2,2-trifluoroacetic Acid] | 765 nM | 
CCCN1CCC[C@@H](Nc2nnc(-c3ccc(C(F)(F)F)cc3O)n(C)c2=O)C1 [Example 8, 3-[2-Hydroxy-4-(trifluoromethyl)phenyl]-4-methyl-6-[[(3R)-1-propyl-3-piperidyl]amino]-1,2,4-triazin-5-one;2,2,2-trifluoroacetic Acid] | 53 nM | 32 nM
CCN1CCC[C@@H](Nc2nnc(-c3c(C)cc(C(F)(F)F)cc3O)n(C)c2=O)C1 (single isomer, unassigned) [Example 29, (M or P)-6-[[(3R)-1-ethyl-3-piperidyl]amino]-3-[2-hydroxy-6-methyl-4-(trifluoromethyl)phenyl]-4-methyl-1,2,4-triazin-5-one] | 7.8 nM | 
CN1CCC[C@@H](Nc2nnc(-c3ccc(C(F)(F)F)cc3O)n(C)c2=O)C1 [Example 6, (R)-3-(2-Hydroxy-4-(trifluoromethyl)phenyl)-4-methyl-6-((1-methylpiperidin-3-yl)amino)-1,2,4-triazin-5(4H)-one;2,2,2-trifluoroacetic Acid] | 24 nM | 15 nM
CCN1CCC[C@@H](Nc2nnc(-c3ccc(OC(F)F)cc3O)n(C)c2=O)C1 [Example 23, 3-[4-(Difluoromethoxy)-2-hydroxy-phenyl]-6-[[(3R)-1-ethyl-3-piperidyl]amino]-4-methyl-1,2,4-triazin-5-one; Formic Acid] | 8.1 nM | 6.5 nM
CCN1CCC[C@@H](Nc2nnc(-c3ccc(C(F)(F)F)cc3O)n(CC)c2=O)C1 [Example 22, 4-Ethyl-6-[[(3R)-1-ethyl-3-piperidyl]amino]-3-[2-hydroxy-4-(trifluoromethyl)phenyl]-1,2,4-triazin-5-one] | 94 nM | 48 nM
CCN1CCC[C@@H](Nc2nnc(-c3ccc(C(C)=O)cc3O)n(C)c2=O)C1 [Example 25, 3-(4-Acetyl-2-hydroxy-phenyl)-6-[[(3R)-1-ethyl-3-piperidyl]amino]-4-methyl-1,2,4-triazin-5-one] | 9.3 nM | 15 nM
Cn1c(-c2ccc(C(F)(F)F)cc2O)nnc(N[C@@H]2CCCNC2)c1=O [Example 3, 3-[2-Hydroxy-4-(trifluoromethyl)phenyl]-4-methyl-6-[[(3R)-3-piperidyl]amino]-1,2,4-triazin-5-one;2,2,2-trifluoroacetic Acid] | 170 nM | 
CN1C[C@@H](F)C[C@@H](Nc2nnc(-c3ccc(C(F)(F)F)cc3O)[nH]c2=O)C1 [Example 36, 6-[[(3R,5S)-1-Methyl-5-fluoro-3-piperidyl]amino]-3-[2-hydroxy-4-(trifluoromethyl)phenyl]-4H-1,2,4-triazin-5-one;2,2,2-trifluoroacetic Acid] | > 1000 nM | 
CCN1C[C@H](C)C[C@@H](Nc2nnc(-c3ccc(C(F)(F)F)cc3O)n(C)c2=O)C1 [Example 15, 6-[[(3R,5R)-1-Ethyl-5-methyl-3-piperidyl]amino]-3-[2-hydroxy-4-(trifluoromethyl)phenyl]-4-methyl-1,2,4-triazin-5-one;2,2,2-trifluoroacetic Acid] | > 1000 nM | 
CN1CC(Nc2nnc(-c3ccc(C(F)(F)F)cc3O)n(C)c2=O)C[C@H](F)C1 (stereo partly drawn) [Example 16, 6-[[(5S)-5-fluoro-1-methyl-3-piperidyl]amino]-3-[2-hydroxy-4-(trifluoromethyl)phenyl]-4-methyl-1,2,4-triazin-5-one;2,2,2-trifluoroacetic Acid] | 860 nM | 
CN1CCC[C@@H](Nc2nnc(-c3ccc(C(F)(F)F)cc3O)n(C)c2=O)C1 [Example 26, 3-[2-hydroxy-4-(trifluoromethyl)phenyl]-4-methyl-6-[[(3R)-1-methyl-3-piperidyl]amino]-1,2,4-triazin-5-one] | 10.3 nM | 
Cn1c(-c2ccc(C(F)(F)F)cc2O)nnc(N[C@@H]2CCC(C)(C)NC2)c1=O [Example 17, 6-[[(3R)-6,6-Dimethyl-3-piperidyl]amino]-3-[2-hydroxy-4-(trifluoromethyl)phenyl]-4-methyl-1,2,4-triazin-5-one;2,2,2-trifluoroacetic Acid] | 683 nM | 
CCN1CCC[C@@H](Nc2nnc(-c3ccc(C(C)(F)F)cc3O)n(C)c2=O)C1 [Example 24, 3-[4-(1,1-Difluoroethyl)-2-hydroxy-phenyl]-6-[[(3R)-1-ethyl-3-piperidyl]amino]-4-methyl-1,2,4-triazin-5-one] | 106 nM | 108 nM
Cn1c(-c2ccc(C(F)(F)F)cc2O)nnc(N[C@H]2C[C@@](C)(O)C2)c1=O [Example 11, 6-(((1S,3S)-3-Hydroxy-3-methylcyclobutyl)amino)-3-(2-hydroxy-4-(trifluoromethyl)phenyl)-4-methyl-1,2,4-triazin-5(4H)-one] | 391 nM | 190 nM
CCN1CCC[C@@H](Nc2nnc(-c3ccc(S(F)(F)(F)(F)F)cc3O)n(C)c2=O)C1 [Example 31, 6-[[(3R)-1-Ethyl-3-piperidyl]amino]-3-[2-hydroxy-4-(pentafluoro-λ6-sulfanyl)phenyl]-4-methyl-1,2,4-triazin-5-one] | 115 nM | 
CCN1CCC[C@@H](Nc2nnc(-c3ccc(C(F)(F)F)cc3O)[nH]c2=O)C1 [Example 35, 6-[[(3R)-1-Ethyl-3-piperidyl]amino]-3-[2-hydroxy-4-(trifluoromethyl)phenyl]-4H-1,2,4-triazin-5-one;2,2,2-trifluoroacetic Acid] | 459 nM | 
Cn1c(-c2ccc(C(F)(F)F)cc2O)nnc(NC2CC3CNC2C3)c1=O (centres unmarked) [Example 13, 6-(2-Azabicyclo[2.2.1]heptan-6-ylamino)-3-[2-hydroxy-4-(trifluoromethyl)phenyl]-4-methyl-1,2,4-triazin-5-one;2,2,2-trifluoroacetic Acid] | > 1000 nM | 
CCN1CCC[C@@H](Nc2nnc(-c3c(C)cc(C(F)(F)F)cc3O)n(C)c2=O)C1 (single isomer, unassigned) [Example 30, (P or M)-6-[[(3R)-1-ethyl-3-piperidyl]amino]-3-[2-hydroxy-6-methyl-4-(trifluoromethyl)phenyl]-4-methyl-1,2,4-triazin-5-one] | 751 nM | 
CCN1CCC[C@@H](Nc2nnc(-c3ccc(C#N)cc3O)n(C)c2=O)C1 [Example 32, 4-[6-[[(3R)-1-Ethyl-3-piperidyl]amino]-4-methyl-5-oxo-1,2,4-triazin-3-yl]-3-hydroxy-benzonitrile; formic acid] | 809 nM | 
CN1CC(Nc2nnc(-c3ccc(C(F)(F)F)cc3O)n(C)c2=O)CC(C)(C)C1 (centres unmarked) [Example 9, 3-[2-Hydroxy-4-(trifluoromethyl)phenyl]-4-methyl-6-[(1,5,5-trimethyl-3-piperidyl)amino]-1,2,4-triazin-5-one;2,2,2-trifluoroacetic Acid] | 868 nM | 
CCN1CCC[C@@H](Nc2nnc(-c3ccc(C(F)(F)F)cc3O)n(C3CC3)c2=O)C1 [Example 20, 4-Cyclopropyl-6-[[(3R)-1-ethyl-3-piperidyl]amino]-3-[2-hydroxy-4-(trifluoromethyl)phenyl]-1,2,4-triazin-5-one;2,2,2-trifluoroacetic Acid] | 726 nM | 

Reference: patent US20240208928A1, “NOVEL COMPOUNDS” (Hoffmann-La Roche Inc., priority 2021, published 2024)
